Tests used:
Assay in all cases: relative viability (nuclei count vs DMSO), 5 days (fraction); higher = more cells survive
RU-SKI 43 + Decitabine = compound: CC[C@@H](C)CNCC(=O)N1CCC2=C([C@@H]1COC3=CC=CC(=C3)C)C=CS2 [RU-SKI 43] + Nc1ncn([C@H]2C[C@H](O)[C@@H](CO)O2)c(=O)n1 [Decitabine] (partner 2 µM)
How it was run: (§1)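 Relative viability equals treated-well nuclei counts divided by vehicle-well nuclei counts. Counts came from 4× images of lung cancer cell lines grown in 1536-well plates for 5 days after pin-tool dosing on the day after seeding. Dosing used one drug alone or a fixed anchor-drug dose plus five library-drug doses (not always all listed) in √10 steps, and values are medians of duplicate plates.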

Irinotecan + Dasatinib = compound: CCc1c2c(nc3ccc(OC(=O)N4CCC(N5CCCCC5)CC4)cc13)-c1cc3c(c(=O)n1C2)COC(=O)[C@]3(O)CC [Irinotecan] + Cc1nc(Nc2ncc(C(=O)Nc3c(C)cccc3Cl)s2)cc(N2CCN(CCO)CC2)n1 [Dasatinib] (partner 0.075 µM)
How it was run: as §1

MK-8033 + Trametinib = compound: Cn1cc(-c2cnc3ccc4ccc(CS(=O)(=O)NCc5ccccn5)cc4c(=O)c3c2)cn1 [MK-8033] + CC(=O)Nc1cccc(-n2c(=O)n(C3CC3)c(=O)c3c(Nc4ccc(I)cc4F)n(C)c(=O)c(C)c32)c1 [Trametinib] (partner 0.02 µM)
How it was run: as §1

MK-8033 + Bortezomib = compound: Cn1cc(-c2cnc3ccc4ccc(CS(=O)(=O)NCc5ccccn5)cc4c(=O)c3c2)cn1 [MK-8033] + CC(C)C[C@H](NC(=O)[C@H](Cc1ccccc1)NC(=O)c1cnccn1)B(O)O [Bortezomib] (partner 0.002 µM)
How it was run: as §1

Cell Line	relative viability (RU-SKI 43 + Decitabine; first compound 0.1 µM)	relative viability (RU-SKI 43 + Decitabine; first compound 0.3162 µM)	relative viability (RU-SKI 43 + Decitabine; first compound 1 µM)	relative viability (RU-SKI 43 + Decitabine; first compound 3.162 µM)	relative viability (RU-SKI 43 + Decitabine; first compound 10 µM)	relative viability (Irinotecan + Dasatinib; first compound 0.6325 µM)	relative viability (Irinotecan + Dasatinib; first compound 2 µM)	relative viability (Irinotecan + Dasatinib; first compound 6.325 µM)	relative viability (Irinotecan + Dasatinib; first compound 20 µM)	relative viability (MK-8033 + Trametinib; first compound 0.02 µM)	relative viability (MK-8033 + Trametinib; first compound 0.06325 µM)	relative viability (MK-8033 + Trametinib; first compound 0.2 µM)	relative viability (MK-8033 + Trametinib; first compound 0.6325 µM)	relative viability (MK-8033 + Trametinib; first compound 2 µM)	relative viability (MK-8033 + Bortezomib; first compound 0.02 µM)	relative viability (MK-8033 + Bortezomib; first compound 0.06325 µM)	relative viability (MK-8033 + Bortezomib; first compound 0.2 µM)	relative viability (MK-8033 + Bortezomib; first compound 0.6325 µM)	relative viability (MK-8033 + Bortezomib; first compound 2 µM)
NCI-H441	0.212	0.238	0.228	0.229	0.223	0.461	0.577	0.286	0.22	0.376	0.343	0.391	0.487	0.437	0.396	0.309	0.378	0.67	0.929
NCI-H838	0.416	0.489	0.469	0.429	0.444	0.213	0.259	0.249	0.247	0.488	0.506	0.534	0.525	0.51	0.794	0.721	0.87	0.79	0.706
NCI-H661	0.483	0.603	0.588	0.557	0.465	0.691	0.64	0.353	0.141	0.544	0.498	0.577	0.57	0.515	0.764	0.685	0.647	0.907	0.858
